The test has as its target T1, Beta-amyloid (Aβ) peptide Aβ1–40 (Homo sapiens, UniProt P05067).
T1 construct: gene APP; Aβ1–40 (Aβ1–42 and Aβ25–35 also measured)
Kind of test: Thioflavin T fibril formation assay on the isolated peptide, […] hr at […] °C; electron microscopy (Aβ[…] and Aβ[…]). The class given is biochemical.

Each structure is given as a SMILES string.

T1 sequence (P05067 672-711 limits assumed): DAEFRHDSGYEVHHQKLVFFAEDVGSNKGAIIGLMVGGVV

The compound `CCN1C=CC(=CC=C(C=Cc2cc[n+](CC)c3ccccc23)c2cc[n+](CC)c3ccccc23)c2ccccc21` [NK-4, 4,4′-[3-{2-(1-ethyl-4(1H)-quinolylidene)ethylidene}propenylene] bis(1-ethylquinolinium iodide)] displayed an IC50 of about 10 µM.

The record behind these values is paper PMC3251615, “Effects of NK-4 in a Transgenic Mouse Model of Alzheimer's Disease” (PLoS ONE, 2012).
